{
  "source": "patent US20110288036A1",
  "about": "“Methods for Treating or Preventing Vascular Graft Failure” (priority 2010, published 2011)",
  "format_in_all_cases": "cell-based",
  "key": {"[1]": {"test_system": "human smooth muscle cell (SMC)", "test": "MTS cell proliferation assay, smooth muscle cells", "conditions": "pre-treatment 20 ng/ml TNF-α", "protocol": "Primary human aortic endothelial cells (HAEC) and primary human aortic smooth muscle cells (HASMC) were obtained from Invitrogen; primary human coronary artery endothelial cells (HCAEC) were obtained from Lonza.\nAll cultures were maintained in 25 cm^2 polystyrene tissue culture flasks in a 37° C., 5% CO2/95% air environment, with cell culture media refreshed every other day. All cells were seeded at a density of 20,000˜30,000 cells/cm^2, as required by the specific experiment, and allowed to grow to 80-90% confluence before being harvested/passaged. Only cells from early passages (numbers 2-8) were utilized in experiments.\nThe CellTiter 96® AQueous Non-Radioactive Cell Proliferation Assay (Promega) was used to assess drug effects on cell proliferation according to the manufacturer's instructions. Briefly, HAECs and HASMCs from early passages were grown to 80-90% confluence in 25 cm^2 tissue culture flasks in a 37° C./5% CO2 incubator prior to harvest. 200 μl of each type of cell suspension (at 20,000 cells/cm^2) was seeded onto separate 96-well plates to yield an approximate 60% confluence per well. Cells were allowed to adhere to the plate surface overnight, followed by addition of 20 ng/ml of TNF-α to stimulate production of inflammatory agents. After a 4-6 hour incubation period, MMI-0100 peptide drug ([…]; SEQ ID NO: 1) was added and cells incubated for another 20-24 hours. Each well was then supplemented with 100 μl of fresh medium and 20 μl of CellTiter 96® AQueous One Solution Reagent and incubated for an additional 1.5-2 hours prior to measuring absorbance of each well at 490 nm with a SoftMax®-equipped plate reader.\n(§1) In order to determine the effect of pharmacological doses of MMI-0100 ([…]; SEQ ID NO: 1) on human endothelial cell (EC) and smooth muscle cell (SMC) proliferation, human EC and SMC cultures were treated with three concentrations (0.25 mM, 0.5 mM, and 1 mM) of MMI-0100 ([…] (SEQ ID NO: 1)) following pre-treatment with TNF-α."}, "[2]": {"test_system": "human smooth muscle cell (SMC)", "test": "Phase contrast morphology, smooth muscle cells", "conditions": "24 hours treatment, vs control cells", "protocol": "as §1"}, "[3]": {"test_system": "human saphenous vein (HSV)", "test": "Muscle bath: sodium nitroprusside-induced relaxation of human saphenous vein", "conditions": "for relaxation: 100 μM pretreatment, phenylephrine 10^-6 M, percent relaxation per method", "protocol": "De-identified, discarded segments of human saphenous vein (HSV) were collected from consented patients undergoing coronary artery or peripheral vascular bypass surgeries. HSV segments were stored in a saline solution until the end of the surgical procedure, at which time they were placed in cold transplant harvest buffer (100 mM potassium lactobionate, 25 mM KH2PO4, 5 mM MgSO4, 30 mM Raffinose, 5 mM Adenosine, 3 mM Glutathione, 1 mM Allopurinol, 50 g/L Hydroxyethyl starch, pH 7.4). The vessels were used within 24 hours of harvest. Using sterile technique, HSV segments were transferred to a 60-mm Petri dish under a sterile hood. The edges (0.5 mm) of each segment were removed with a blade and excess adventitial tissue and fat removed with minimal manipulation. HSV segments were cut into consecutive rings of approximately 1.0 mm in width to be utilized for organ culture or muscle bath experiments. Two rings from each segment were immediately fixed in 10% formalin at 37° C. for 30 min to obtain pre-culture intimal thickening measurements.\nIn preparation for testing vein segment functional viability, HSV rings were weighed and their lengths recorded. To focus on smooth muscle responses, the endothelium was mechanically denuded by rolling the luminal surface of each ring at the tip of a fine vascular forceps before suspension in a muscle bath containing a bicarbonate buffer (120 mM NaCl, 4.7 mM KCl, 1.0 mM MgSO4, 1.0 mM NaH2PO4, 10 mM glucose, 1.5 mM CaCl2, and 25 mM […], pH 7.4) equilibrated with 95% O2 and 5% CO2 at 37° C. The rings were stretched and the length progressively adjusted until maximal tension was obtained. […] Rings were maintained at a resting tension of 1 g, which produces maximal responses to contractile agonists as previously determined, and equilibrated for 2 hours in buffer. […]\nHSV rings were first contracted with 110 mM KCl (with equimolar replacement of NaCl in bicarbonate buffer) and the generated force was measured. […] Rings were relaxed with a cumulative log dose of sodium nitroprusside (SNP), a nitric oxide donor, and the force generated was recorded. […] Rings were then incubated with either buffer alone or buffer plus 100 μM of MMI-0100 ([…] (SEQ ID NO: 1)) for 2 hours, followed by treatment with the same doses of PE and SNP, and the forces generated again recorded. Measured force was normalized for ring weight and length and percent relaxation was calculated; force generated with 10^−6 M of PE was set as 0% relaxation.\nThe enhancing effect of MMI-0100 ([…]; SEQ ID NO: 1) on smooth muscle relaxation was examined by pre-treating harvested human saphenous vein (HSV) with MMI-0100 ([…]; SEQ ID NO: 1) before SNP treatment. […] Percentage of relaxation at 0, 0.01, 0.1, and 1.0 μM of SNP was measured. […]"}},
  "data": [
    {"sequence": "YARAAARQARAKALARQLGVAA [MMI-0100]", "values": [
      {"measurement": "SMC proliferation vs TNF-α alone control", "setting": "[1]; 0.25 mM", "result": "slightly increased cell proliferation"},
      {"measurement": "increase in SMC proliferation vs TNF-α alone control", "setting": "[1]; 0.5 mM", "result": 12, "unit": "%"},
      {"measurement": "increase in SMC proliferation vs TNF-α alone control", "setting": "[1]; 1 mM", "result": 7, "unit": "%"},
      {"measurement": "morphological changes of SMC", "setting": "[2]", "result": "no obvious morphological changes"},
      {"measurement": "increase in relaxation compared to control-pretreated HSV", "setting": "[3]; 30 μM, 2 hrs pretreatment, norepinephrine contraction, SNP 0-1 μM", "result": "about 40%"},
      {"measurement": "relaxation", "setting": "[3]; SNP 10^-7 M, untreated control 72.768±6.99", "result": "92.54±3.09"},
      {"measurement": "relaxation", "setting": "[3]; SNP 10^-8 M, untreated control 10.825±5.62", "result": "25.622±6.38"}
    ]}
  ]
}
